Results: PubChem BioAssay AID256 (DTP/NCI, 2004)
Values joined by “and” are separate entries in the source; they are usually repeats but may differ in a detail not shown here. Identical values can stand only once. Toxic doses and inconclusive results are not listed.

System: CD2F1 mice, L1210 leukemia ip, survival T/C
Experiment: NCI In Vivo Anticancer Drug Screen. Data for tumor model L1210 Leukemia (intraperitoneal) in CD2F1 (CDF1) mice
Details: higher = longer survival
Summary of the method: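 Implant tumor; dose compound or vehicle; measure endpoint in both groups; report treated divided by control.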

[1] = endpoint: mean survival time, dose: 100.0 mg/kg/injection, schedule: Q01DX001 (ip), vehicle: saline with Tween-80
[2] = endpoint: mean survival time, dose: 200.0 mg/kg/injection, schedule: Q01DX001 (ip), vehicle: saline with Tween-80
[3] = endpoint: mean survival time, dose: 400.0 mg/kg/injection, schedule: Q01DX001 (ip), vehicle: saline with Tween-80
[4] = endpoint: mean survival time, dose: 50.0 mg/kg/injection, schedule: Q01DX009 (ip), vehicle: water
[5] = endpoint: mean survival time, dose: 100.0 mg/kg/injection, schedule: Q01DX009 (ip), vehicle: water
[6] = endpoint: mean survival time, dose: 200.0 mg/kg/injection, schedule: Q01DX009 (ip), vehicle: water
[7] = endpoint: mean survival time, dose: 50.0 mg/kg/injection, schedule: Q01DX009 (ip), vehicle: other
[8] = endpoint: mean survival time, dose: 100.0 mg/kg/injection, schedule: Q01DX009 (ip), vehicle: other
[9] = endpoint: mean survival time, dose: 200.0 mg/kg/injection, schedule: Q01DX009 (ip), vehicle: other
[10] = endpoint: mean survival time, dose: 100.0 mg/kg/injection, schedule: Q01DX009 (ip), vehicle: saline
[11] = endpoint: mean survival time, dose: 100.0 mg/kg/injection, schedule: Q04DX003 (ip), vehicle: saline
[12] = endpoint: mean survival time, dose: 200.0 mg/kg/injection, schedule: Q01DX009 (ip), vehicle: saline
[13] = endpoint: mean survival time, dose: 200.0 mg/kg/injection, schedule: Q04DX003 (ip), vehicle: saline
[14] = endpoint: mean survival time, dose: 400.0 mg/kg/injection, schedule: Q01DX009 (ip), vehicle: saline
[15] = endpoint: mean survival time, dose: 400.0 mg/kg/injection, schedule: Q04DX003 (ip), vehicle: saline
[16] = endpoint: mean survival time, dose: 100.0 mg/kg/injection, schedule: Q01DX001 (ip), vehicle: saline
[17] = endpoint: mean survival time, dose: 200.0 mg/kg/injection, schedule: Q01DX001 (ip), vehicle: saline
[18] = endpoint: mean survival time, dose: 50.0 mg/kg/injection, schedule: Q01DX009 (ip), vehicle: saline

For CN(CN1C(=O)CCC1=O)CN1C(=O)CCC1=O, the T/C (endpoint: median survival time, dose: 50.0 mg/kg/injection, schedule: Q01DX005 (ip), vehicle: saline) was 105 % of control, the T/C (endpoint: median survival time, dose: 100.0 mg/kg/injection, schedule: Q01DX005 (ip), vehicle: saline) was 113 % of control and the T/C (endpoint: median survival time, dose: 200.0 mg/kg/injection, schedule: Q01DX005 (ip), vehicle: saline) was 121 % of control. For the same compound, the T/C (endpoint: median survival time, dose: 400.0 mg/kg/injection, schedule: Q01DX005 (ip), vehicle: saline) was 121 % of control.
With NC(CCl)=NCC1C2CC3CC(C2)CC1C3 (stereo unspecified) the T/C (endpoint: mean survival time, dose: 6.25 mg/kg/injection, schedule: Q04DX002 (ip), vehicle: saline) was 96 % of control, the T/C (endpoint: mean survival time, dose: 12.5 mg/kg/injection, schedule: Q04DX002 (ip), vehicle: saline) was 93 % of control and the T/C (endpoint: mean survival time, dose: 25.0 mg/kg/injection, schedule: Q04DX002 (ip), vehicle: saline) was 90 % of control. For the same compound, the T/C (endpoint: mean survival time, dose: 50.0 mg/kg/injection, schedule: Q04DX002 (ip), vehicle: saline) was 96 % of control, the T/C (endpoint: mean survival time, dose: 100.0 mg/kg/injection, schedule: Q01DX001 (ip), vehicle: Klucel (hydroxypropylcellulose) (HPC)) was 107 % of control and the T/C (endpoint: mean survival time, dose: 200.0 mg/kg/injection, schedule: Q01DX001 (ip), vehicle: Klucel (hydroxypropylcellulose) (HPC)) was 98 % of control.
In the case of Nc1nc(=O)n(CCCOc2cccc([N+](=O)[O-])c2)cc1-c1ccccc1, the T/C [1] is reported as 96 % of control, the T/C [2] is reported as 87 % of control and the T/C [3] is reported as 87 % of control.
For COc1cccc(C(O)c2ccncc2)c1OC (stereo unspecified), the T/C (endpoint: mean survival time, dose: 25.0 mg/kg/injection, schedule: Q01DX009 (ip), vehicle: water) was 96 % of control, the T/C [4] was 105 % of control and the T/C [5] was 98 % of control. For the same compound, the T/C [6] was 93 % of control and the T/C (endpoint: mean survival time, dose: 400.0 mg/kg/injection, schedule: Q01DX009 (ip), vehicle: water) was 91 % of control.
In the case of O=C(O)Cc1cc(O)c(CC(=O)O)cc1O, the T/C (endpoint: mean survival time, dose: 100.0 mg/kg/injection, schedule: Q04DX002 (ip), vehicle: saline with Tween-80) is reported as 95 % of control, the T/C (endpoint: mean survival time, dose: 200.0 mg/kg/injection, schedule: Q04DX002 (ip), vehicle: saline with Tween-80) is reported as 95 % of control and the T/C (endpoint: mean survival time, dose: 400.0 mg/kg/injection, schedule: Q04DX002 (ip), vehicle: saline with Tween-80) is reported as 91 % of control.
For CC(=O)C(CCCCCCCCCCC(C(C)=O)C(C)=O)C(C)=O, the T/C [1] was 93 % of control, the T/C [2] was 101 % of control and the T/C [3] was 94 % of control.
CC1=C(O)C(=O)OC1c1ccc(C)cc1 (stereo unspecified) was tested, and the T/C (endpoint: mean survival time, dose: 12.5 mg/kg/injection, schedule: Q01DX009 (ip), vehicle: other) was 101 % of control, the T/C (endpoint: mean survival time, dose: 25.0 mg/kg/injection, schedule: Q01DX009 (ip), vehicle: other) was 98 % of control and the T/C [7] was 95 % of control. For the same compound, the T/C [8] was 98 % of control and the T/C [9] was 104 % of control.
CCCCCCCCCCC(N)C(=O)O (stereo unspecified) was tested, and the T/C [10] was 95 % of control, the T/C [11] was 100 % of control and the T/C [12] was 92 % of control. The T/C [13] was 97 % of control, the T/C [14] was 95 % of control and the T/C [15] was 96 % of control.
With O=CC12C=CC(CC1)C1C(=O)OC(=O)C12 (stereo unspecified) the T/C [1] was 104 % of control, the T/C [2] was 103 % of control and the T/C [3] was 101 % of control.
In the case of OCc1cc2ccccc2cc1Br, the T/C (endpoint: mean survival time, dose: 50.0 mg/kg/injection, schedule: Q01DX001 (ip), vehicle: saline) is reported as 89 % of control, the T/C [16] is reported as 93 % of control and the T/C [17] is reported as 95 % of control. The T/C (endpoint: mean survival time, dose: 400.0 mg/kg/injection, schedule: Q01DX001 (ip), vehicle: saline) was 100 % of control.
CCCCC(OC(=O)Nc1cccc2ccccc12)C(C)C (stereo unspecified) was tested, and the T/C (endpoint: mean survival time, dose: 100.0 mg/kg/injection, schedule: Q04DX003 (ip), vehicle: saline with Tween-80) was 91 % of control and the T/C (endpoint: mean survival time, dose: 200.0 mg/kg/injection, schedule: Q04DX003 (ip), vehicle: saline with Tween-80) was 88 % of control.
In the case of Cc1c(Cl)c(Cl)c(Cl)c(-c2c(Cl)c(C)c(Cl)c(Cl)c2Cl)c1Cl, the T/C [11] is reported as 102 % of control, the T/C [13] is reported as 96 % of control and the T/C [15] is reported as 98 % of control.
OC1c2ccccc2-c2ccccc21 was tested, and the T/C [10] was 88 % of control, the T/C [12] was 88 % of control and the T/C [14] was 87 % of control.
CCc1ccc(C2=C(O)C(=O)C(c3ccccc3)=C(O)C2=O)cc1 was tested, and the T/C (endpoint: mean survival time, dose: 3.12 mg/kg/injection, schedule: Q01DX009 (ip), vehicle: Klucel (hydroxypropylcellulose) (HPC)) was 97 % of control, the T/C (endpoint: mean survival time, dose: 6.25 mg/kg/injection, schedule: Q01DX009 (ip), vehicle: Klucel (hydroxypropylcellulose) (HPC)) was 100 % of control and the T/C (endpoint: mean survival time, dose: 12.5 mg/kg/injection, schedule: Q01DX009 (ip), vehicle: Klucel (hydroxypropylcellulose) (HPC)) was 100 % of control. For the same compound, the T/C (endpoint: mean survival time, dose: 25.0 mg/kg/injection, schedule: Q01DX009 (ip), vehicle: Klucel (hydroxypropylcellulose) (HPC)) was 97 % of control, the T/C (endpoint: mean survival time, dose: 50.0 mg/kg/injection, schedule: Q01DX009 (ip), vehicle: Klucel (hydroxypropylcellulose) (HPC)) was 100 % of control and the T/C (endpoint: mean survival time, dose: 100.0 mg/kg/injection, schedule: Q01DX009 (ip), vehicle: Klucel (hydroxypropylcellulose) (HPC)) was 95 % of control.
With CC#CCO the T/C (endpoint: mean survival time, dose: 100.0 mg/kg/injection, schedule: Q01DX009 (ip), vehicle: saline with Tween-80) was 104 % of control and the T/C (endpoint: mean survival time, dose: 200.0 mg/kg/injection, schedule: Q01DX009 (ip), vehicle: saline with Tween-80) was 98 % of control.
CO/N=C/c1ccc([N+](=O)[O-])s1 was tested, and the T/C [18] was 116 % of control.
In the case of COc1ccc([NH-])cc1.COc1ccc([NH-])cc1.[Br][Pt+2][Br], the T/C (endpoint: mean survival time, dose: 3.12 mg/kg/injection, schedule: Q04DX003 (ip), vehicle: distilled water + Tween-80) is reported as 111 % of control, the T/C (endpoint: mean survival time, dose: 6.25 mg/kg/injection, schedule: Q04DX003 (ip), vehicle: distilled water + Tween-80) is reported as 108 % of control and the T/C (endpoint: mean survival time, dose: 12.5 mg/kg/injection, schedule: Q04DX003 (ip), vehicle: distilled water + Tween-80) is reported as 114 % of control. For the same compound, the T/C (endpoint: mean survival time, dose: 25.0 mg/kg/injection, schedule: Q04DX003 (ip), vehicle: distilled water + Tween-80) was 111 % of control and the T/C (endpoint: mean survival time, dose: 50.0 mg/kg/injection, schedule: Q04DX003 (ip), vehicle: distilled water + Tween-80) was 98 % of control.
With O=C(N/N=C\c1ccc(Cl)cc1)C(=O)N/N=C\c1ccc(Cl)cc1 the T/C [1] was 106 % of control, the T/C [2] was 92 % of control and the T/C [3] was 89 % of control.
In the case of C[n+]1ccn(Cc2ccc([N+](=O)[O-])cc2)c1, the T/C [16] is reported as 100 % of control and the T/C [17] is reported as 101 % of control.
NC1CCCCC1N.O=S(=O)([O-])CCCN1CCOCC1.O=S(=O)([O-])CCCN1CCOCC1.[Pt+4] was tested, and the T/C (endpoint: median survival time, dose: 3.12 mg/kg/injection, schedule: Q04DX003 (ip), vehicle: saline with Tween-80) was 361 % of control, the T/C (endpoint: median survival time, dose: 6.25 mg/kg/injection, schedule: Q04DX003 (ip), vehicle: saline with Tween-80) was 174 % of control and 361 % of control and the T/C (endpoint: median survival time, dose: 12.5 mg/kg/injection, schedule: Q04DX003 (ip), vehicle: saline with Tween-80) was 195 % of control and 196 % of control. The T/C (endpoint: median survival time, dose: 25.0 mg/kg/injection, schedule: Q04DX003 (ip), vehicle: saline with Tween-80) was 341 % of control and 361 % of control and the T/C (endpoint: median survival time, dose: 50.0 mg/kg/injection, schedule: Q04DX003 (ip), vehicle: saline with Tween-80) was 228 % of control and 365 % of control.
For CCOC(=O)Nc1cc(N)c2[nH]cnc2n1, the T/C (endpoint: mean survival time, dose: 100.0 mg/kg/injection, schedule: Q01DX001 (ip), vehicle: carboxymethylcellulose (CMC)) was 96 % of control.
Cc1cc(=O)cc(C(=O)O)o1 was tested, and the T/C [7] was 107 % of control, the T/C [8] was 95 % of control and the T/C [9] was 93 % of control.
With OC(CCc1ccccc1)(C(F)(F)F)C(F)(F)F the T/C (endpoint: mean survival time, dose: 100.0 mg/kg/injection, schedule: Q04DX003 (ip), vehicle: Klucel (hydroxypropylcellulose) (HPC)) was 92 % of control, the T/C (endpoint: mean survival time, dose: 200.0 mg/kg/injection, schedule: Q04DX003 (ip), vehicle: Klucel (hydroxypropylcellulose) (HPC)) was 95 % of control and the T/C (endpoint: mean survival time, dose: 400.0 mg/kg/injection, schedule: Q04DX003 (ip), vehicle: Klucel (hydroxypropylcellulose) (HPC)) was 97 % of control.
O=C(c1ccc(-c2ccccc2)cc1)C(Br)C(Br)c1ccccc1 (stereo unspecified) was tested, and the T/C (endpoint: mean survival time, dose: 12.5 mg/kg/injection, schedule: Q01DX009 (ip), vehicle: water) was 95 % of control, the T/C [4] was 90 % of control and the T/C [5] was 90 % of control. The T/C [6] was 102 % of control.
With C[N+](C)(C)c1ncnc2c1ncn2C1CCCO1 (stereo unspecified) the T/C (endpoint: mean survival time, dose: 12.5 mg/kg/injection, schedule: Q01DX009 (ip), vehicle: saline) was 93 % of control, the T/C (endpoint: mean survival time, dose: 25.0 mg/kg/injection, schedule: Q01DX009 (ip), vehicle: saline) was 98 % of control and the T/C [18] was 112 % of control. For the same compound, the T/C [10] was 101 % of control.
With CCC(Cc1ccccc1Br)C1=NC(C)(C)CO1 (stereo unspecified) the T/C (endpoint: mean survival time, dose: 100.0 mg/kg/injection, schedule: Q01DX001 (ip), vehicle: acetone) was 96 % of control and the T/C (endpoint: mean survival time, dose: 200.0 mg/kg/injection, schedule: Q01DX001 (ip), vehicle: acetone) was 98 % of control.
